The test system of data set [1] is L1210 Leukämiezellen. The data set can be described thus: Colony formation of L1210 leukaemia cells in soft agar (cytotoxicity in vitro). The format is cell-based, Maus. The settings on record: Mus musculus. The source says:
Die zytostatische Wirksamkeit der erfindungsgemäßen Verbindungen wurde anhand von L1210 Leukämiezellen der Maus getestet. Hierzu wurde die Koloniebildung von L1210 Leukämiezellen in Agarplatten herangezogen. Diese Methode dient zum Nachweis des Einflusses der Testsubstanzen auf das Wachstumsverhalten der Zellen über 1 Stunde oder über mehrere Generationen. Bei einer Zellzykluszeit von 10-12 Stunden werden dabei in der Testzeit von 7 Tagen etwa 14 aufeinanderfolgende Generationen beobachtet. Die erfindungsgemäßen zytostatisch wirksamen Substanzen bewirken in diesem Test eine Reduktion der zu beobachtenden Koloniezahl gegenüber einer unbehandelten Kontrollprobe.
Verfahrensweise zur Ermittlung der Koloniebildung von L1210 Leukämiezellen in Soft-Agar
500 Leukämiezellen pro Platte wurden mit unterschiedlichen Konzentrationen der Testsubstanz 1 Stunde bei 37°C inkubiert. Anschließend wurden die Zellen zweimal mit McCoy5A-Medium gewaschen und schließlich in Petrischalen nach Zugabe von 0,3 % Agar ausgegossen. Kontrollen wurden lediglich mit frischem Medium inkubiert. Anstelle der einstündigen Inkubation wurden in manchen Fällen unterschiedliche Konzentrationen und Testsubstanzen der oberen Agarschicht zugemischt, um so eine kontinuierliche Exposition der Zellen über die gesamte Inkubationszeit zu erreichen. Nach Erstarren des Agars wurden die Platten im Brutschrank 7 Tage bei 37°C inkubiert (5 Vol.-% CO₂, 95 % relative Luftfeuchtigkeit). Anschließend wurde die Zahl der entstandenen Kolonien mit einem Durchmesser von mehr als 60 µm gezählt. Die Ergebnisse wurden angegeben als Koloniezahl in behandelten Agarplatten in Prozent der unbehandelten Kontrolle. Aus der so erhalte nen Dosiswirkungskurve wurde die IC₅₀ als Maß für die Wirksamkeit der Substanz ermittelt. Die Ergebnisse für die hier beschriebenen Verbindungen im Vergleich zu Adriamycin sind in Tabelle 1 zusammengefaßt.

The nature of data set [2]: Stability under weakly acidic conditions (qualitative statement). The format is physicochemical. Particulars: unter schwach sauren Bedingungen.
[3] abbreviates: L1210, 168 h, continuous exposure over the whole incubation time (7 days, 37°C), substance mixed into upper agar layer, colony count vs untreated control, read-out: Dauerinku-bation IC50.
Where [4] appears, read: L1210, 1 h incubation at 37°C, cells washed, then 7 days in agar, colony count vs untreated control, read-out: 1 h-Inku-bation IC50.

Usually IC50 stands for the point on the concentration scale where inhibition reaches its midpoint.

Each structure is given as a SMILES string. ≈ marks a conversion by molar mass, not a printed value. Where two headings read alike, the source gives them in different places.

`CC[C@@]1(O)C[C@H](O[C@H]2C[C@H](N(C)CCN(C)CCNC)[C@H](O)[C@H](C)O2)c2c(O)c3c(c(O)c2[C@H]1O)C(=O)c1cccc(O)c1C3=O` [Verbindung 3, 7-0-(3′-N-(N,N′-Dimethyl-ethylendiaminoethyl)-3′-N-methyl-α-L-daunosaminyl)-β-rhodomycinon]: the values for the IC50 in data set [1] (setting [3]) and in data set [1] (setting [4]) were 0.1 µg/mL (≈ 0.155 µM) and 0.6 µg/mL (≈ 0.932 µM), respectively.
Consider `CC[C@@]1(O)C[C@H](O[C@H]2C[C@H](N(C)CCN(C)C)[C@H](O)[C@H](C)O2)c2c(O)c3c(c(O)c2[C@H]1O)C(=O)c1cccc(O)c1C3=O` [Verbindung 2, 7-0-(3′-N-Dimethylaminoethyl-3′-N-methyl-α-L-,daunosaminyl)-β-rhodomycinon], for which the 50% inhibitory concentration (IC50) in data set [1] (setting [3]) was 0.033 µg/mL (≈ 0.0549 µM); in data set [1] (setting [4]) it was 0.12 µg/mL (≈ 0.2 µM).
In the case of `CC[C@@]1(O)C[C@H](O[C@H]2C[C@H](N(C)CCNCCc3c[nH]cn3)[C@H](O)[C@H](C)O2)c2c(O)c3c(c(O)c2[C@H]1O)C(=O)c1cccc(O)c1C3=O` [Verbindung 4, 7-0-(3′-N-Histaminoethyl-3′-N-methyl-α-L-daunosaminyl)-β-rhodomycinon], the IC50 in data set [1] (setting [3]) came to 0.4 µg/mL (≈ 0.6 µM); in data set [1] (setting [4]) it was 1.2 µg/mL (≈ 1.8 µM).
On to `CC[C@@]1(O)C[C@H](O[C@H]2C[C@H](N(C)CCCl)[C@H](O)[C@H](C)O2)c2c(O)c3c(c(O)c2[C@H]1O)C(=O)c1cccc(O)c1C3=O` [Verbindung 1, 7-0-(3′-N-Chlorethyl-3′-N-methyl-α-L-daunosaminyl)-β-rhodomycinon], for which the Stabilität entry in data set [2] is recorded as “relativ stabil”. Besides, the IC50 in data set [1] (L1210, 168 h, read-out: Dauerinku-bation IC50) stood at 0.03 µg/mL (≈ 0.0507 µM); in data set [1] (L1210, read-out: 1 h-Inku-bation IC50), 0.11 µg/mL (≈ 0.186 µM).

The record behind these values is patent EP0394983A2, “Anthracycline derivatives with cytostatic activity” (priority 1989, dated 1990).
